The record followed here is patent US6693115B2, “Acid addition salts of hydropyridine derivatives” (Sankyo Company, Limited, priority 2000, dated 2004).

Data set [1] has as its system ADP-induced platelet aggregation. Description: Inhibitory effect on platelet aggregation (feeding), ex vivo PRP after oral administration. In kind it is in vivo, male beagle dogs. As to conditions: fed dogs, oral 0.3 mg/kg, ADP 20 μM, mean ± standard deviation; for Inhibition (%) of platelet aggregation 2 hours: 2 hours after administration; for Inhibition (%) of platelet aggregation 4 hours: 4 hours after administration. Here is the method:
Inhibitory Effect on Platelet Aggregation (Feeding)
For this test, male beagle dogs (about 10 kg in body weight, purchased from Kasho Co., Ltd. and Nippon Nosan Kogyo K.K.) were used. One group consisted of 5 or 6 dogs. The platelet aggregation was measured using an automatic platelet aggregometer (“PAM-6C”, trade name; a product of Mebanix Corporation) in accordance with the method of Born, et al. (J. Physiol., 168, 178 (1963)) with a partial modification.
Each of 2.5 hours and 4.5 hours after feeding, 5.4 ml of blood was collected from the cephalic vein of each dog using sodium citrate (0.6 ml, 3.8% (w/v)) as an anticoagulant. The citrate-added blood was centrifuged (240 g, 20 minutes) to separate platelet-rich plasma (hereinafter referred to as “PRP”) and platelet-poor plasma (hereinafter referred to as “PPP”). After the number of platelets in PRP was counted by an automatic hematology analyzer (“K-1000”, trade name; a product of Sysmex Corporation), PPP was added to adjust the number of platelets to 3×10^8/ml. PRP (240 μl) dispensed in a cuvette was set on the automatic platelet aggregometer. After preheating (at 37° C.) for 1 minute, 10 μl of ADP (final concentration: 20 μM) was added to cause platelet aggregation. For 10 minutes, platelet aggregation was measured and the maximum aggregation was determined to give the pre-administration value.
On the next day, 30 minutes after feeding, each test compound filled in a gelatin capsule was orally administered to the dogs. The blood was collected each of 2 and 4 hours after the administration. The platelet aggregation of PRP was measured, whereby the maximum aggregation was determined. The inhibition (%) of platelet aggregation by the test compound was calculated by comparing it with the pre-administration value.
In these tables, the term “hydrochloride” means 2-acetoxy-5-(α-cyclopropylcarbonyl-2-fluorobenzyl)-4,5,6-7-tetrahydrothieno[3,2-c]pyridine hydrochloride obtained in Example 1, “free form” means 2-acetoxy-5-(α-cyclopropylcarbonyl-2-fluorobenzyl)-4,5,6,7-tetrahydrothieno[3,2-c]pyridine, and “maleate” means 2-acetoxy-5-(α-cyclopropylcarbonyl-2-fluorobenzyl)-4,5,6,7-tetrahydrothieno[3,2-c]pyridine maleate obtained in Example 2.

Data set [2] is described as follows: Storage stability of crystal forms. In kind it is physicochemical. The following applies: comparison between hydrochloride crystal forms.
Data set [3] concerns ADP-induced platelet aggregation. The experiment in a line: Inhibitory effect on platelet aggregation (fasting), ex vivo PRP after oral administration. As to conditions: Table 4, fasted dogs, oral 1.0 mg/kg, ADP 20 μM, mean ± standard deviation; for Inhibition (%) of platelet aggregation 2 hours: 2 hours after administration; for Inhibition (%) of platelet aggregation 4 hours: 4 hours after administration. In kind it is in vivo, male beagle dogs. The protocol: Inhibitory Effect on Platelet Aggregation (Fasting)
For this test, male beagle dogs (about 10 kg in body weight, purchased from Kasho Co., Ltd. and Nippon Nosan Kogyo K.K.) were used. One group consisted of 3 dogs. The platelet aggregation was measured using an automated platelet aggregometer (“PAM-6C”, trade name; a product of Mebanix Corporation) in accordance with the method of Born, et al. (J. Physiol., 168, 178(1963)) with a partial modification.
From the cephalic vein of each dog fasted overnight, 5.4 ml of the blood was collected using sodium citrate (0.6 ml, 3.8% (w/v)) as an anticoagulant. The resulting citrate-added blood was centrifuged (240 g, 20 minutes) to separate platelet-rich plasma (hereinafter referred to as “PRP”) and platelet-poor plasma (hereinafter referred to as “PPP”). After the number of platelets in PRP was counted by an automatic hematology analyzer (“K-1000”, trade name; a product of Sysmex Corporation), PPP was added to adjust the number of platelets to 3×10^8/ml. PRP (240 μl) dispensed in a cuvette was set on the automatic platelet aggregometer. After preheating (at 37° C.) for 1 minute, 10 μl of ADP (final concentration: 20 μM) was added to cause platelet aggregation. For 10 minutes, platelet aggregation was measured and the maximum aggregation was determined to give the pre-administration value.
On the next day, each test compound filled in a gelatin capsule was orally administered to the dogs. The blood was collected each of 2 and 4 hours after administration. The platelet aggregation of PRP was measured, whereby the maximum aggregation was determined. The inhibition (%) of platelet aggregation by the test compound was calculated by comparing it with the pre-administration value.
In this table, the term “maleate” means 2-acetoxy-5-(α-cyclopropylcarbonyl-2-fluorobenzyl)-4,5,6,7-tetrahydrothieno[3,2-c]pyridine maleate obtained in Example 2, while the term “free form” means 2-acetoxy-5-(α-cyclopropylcarbonyl-2-fluorobenzyl)-4,5,6,7-tetrahydrothieno[3,2-c]pyridine.

Structures are written as SMILES.

On to `CC(=O)Oc1cc2c(s1)CCN(C(C(=O)C1CC1)c1ccccc1F)C2.Cl` (stereo not drawn) [Hydrochloride, 2-Acetoxy-5-(α-cyclopropylcarbonyl-2-fluorobenzyl)-4,5,6,7-tetrahydrothieno[3,2-c]pyridine hydrochloride (crystal A)], for which, in data set [1] (Table 2), the “Inhibition (%) of platelet aggregation 2 hours” value is listed as 49.0 ± 18.7% and the “Inhibition (%) of platelet aggregation 4 hours” value is recorded as 48.5 ± 18.3%.

Take `CC(=O)Oc1cc2c(s1)CCN(C(C(=O)C1CC1)c1ccccc1F)C2.Cl` (stereo not drawn) [crystal B1, 2-Acetoxy-5-(α-cyclopropylcarbonyl-2-fluorobenzyl)-4,5,6,7-tetrahydrothieno[3,2-c]pyridine Hydrochloride (Crystal B1)]: the storage stability result in data set [2] is reported as “more excellent storage stability than crystal A”.

As to `CC(=O)Oc1cc2c(s1)CCN(C(C(=O)C1CC1)c1ccccc1F)C2.O=C(O)/C=C\C(=O)O` (stereo not drawn) [Maleate, 2-Acetoxy-5-(α-cyclopropylcarbonyl-2-fluorobenzyl)-4,5,6,7-tetrahydrothieno[3,2-c]pyridine maleate], in data set [3], the “Inhibition (%) of platelet aggregation 2 hours” value worked out at 63.4 ± 22.9% and the “Inhibition (%) of platelet aggregation 4 hours” value was found to be 88.5 ± 5.7%. Further, in data set [1] (Table 3), the “Inhibition (%) of platelet aggregation 2 hours” value is listed as 50.9 ± 14.5% and the “Inhibition (%) of platelet aggregation 4 hours” value was found to be 58.6 ± 15.7%.

Turning to `CC(=O)Oc1cc2c(s1)CCN(C(C(=O)C1CC1)c1ccccc1F)C2.Cl` (stereo not drawn) [crystal B2, 2-Acetoxy-5-(α-cyclopropylcarbonyl-2-fluorobenzyl)-4,5,6,7-tetrahydrothieno[3,2-c]pyridine hydrochloride (crystal B2)], the storage stability entry in data set [2] is “more excellent storage stability than crystal B1”.

Take `CC(=O)Oc1cc2c(s1)CCN(C(C(=O)C1CC1)c1ccccc1F)C2` (stereo not drawn) [Free form, 2-Acetoxy-5-(α-cyclopropylcarbonyl-2-fluorobenzyl)-4,5,6,7-tetrahydrothieno[3,2-c]pyridine, reference compound]: the “Inhibition (%) of platelet aggregation 2 hours” value in data set [3] is 27.9 ± 24.8%; in data set [1] (Table 2), 25.8 ± 10.9%; in data set [1] (Table 3), 21.7 ± 9.8%. Moreover, the figures for the “Inhibition (%) of platelet aggregation 4 hours” value in data set [3], in data set [1] (Table 2) and in data set [1] (Table 3) were 28.7 ± 24.4%, 28.6 ± 14.2% and 23.8 ± 12.6%, respectively.
